What was measured:
Assay type in all cases: physicochemical
[1] = TGA (Thermogravimetric Analysis) weight loss
Protocol: The weight loss for the sample was obtained using a TA Instruments TGA […] thermogravimetric calorimeter. The sample was analyzed as received and was program heated from ambient to 120° C. at 10° C./min under nitrogen purge.

[2] = DVS (Dynamic Vapor Sorption) cycling humidity, hygroscopicity; conditions: full cycle in step mode at 25° C., 0-90% RH in 10% RH increments
Protocol: (§1) A representative sample of crystalline form (IS-VI) was subjected to DVS (Dynamic Vapor Sorption) cycling humidity conditions to determine hydgroscopicity, as shown in FIG. 4. The sample was analyzed using a Surface Measurement System DVS-1 Dynamic Vapor Sorption System. The sample was analyzed full cycle in step mode at 25° C. from 0-90% RH in 10% RH increments. The equilibration conditions set were: dm/dt of 0.0007%/min, dm/dt window of 5 minutes, and minimum and maximum stages of 15 and 360 minutes. Data was collected in 1 minute intervals. Nitrogen was used as the carrier gas. The results from the DVS measurements indicate that crystalline form (IS-VI) is non-hygoscopic

[3] = Stability to temperature and humidity, concluded from DSC, TGA and DVS results; conditions: solid state; conclusion from the results above
Protocol: DSC (Differential Scanning Calorimetry) was measured for a representative sample of crystalline form (IS-VI), as shown in FIG. 2. DSC analysis of the sample was performed using a TA Instruments DSC Q1000 differential scanning calorimeter. The sample was analyzed as received in an open TA Instrument aluminum sample pan and was program heated from ambient to 120° C. at 10° C./min under nitrogen purge.
The weight loss for the sample was obtained using a TA Instruments TGA Q5000IR thermogravimetric calorimeter. The sample was analyzed as received and was program heated from ambient to 120° C. at 10° C./min under nitrogen purge.
as §1

Q: What does the source list for `NS(=O)(=O)NC[C@H]1COc2cc(Cl)ccc2O1` [crystalline form (IS-VI), (2S)-(−)-N-(6-chloro-2,3-dihydro-benzo[1,4]dioxin-2-ylmethyl)-sulfamide]?
A: hydrate state indicated by TGA ([1]; ambient to 120° C. at 10° C./min under nitrogen purge): non-hydrate; weight loss by TGA ([1]; heated from ambient to 120° C. at 10° C./min under nitrogen purge, ambient temperature up to and including melting): No weight loss was observed; hygroscopicity by DVS [2]: non-hygoscopic; stability to temperature and humidity [3]: exhibits stability to temperature and humidity

Reference: patent US20090318544A1, “CRYSTALLINE FORM OF (2S)-(-)-N-(6-CHLORO-2,3-DIHYDRO-BENZO[1,4]DIOXIN-2-YLMETHYL)-SULFAMIDE” (priority 2008, published 2009)
